Target: T1, Nav1.7 voltage-gated sodium channel (Homo sapiens, UniProt Q15858)
T1 construct: Gene(s) encoding the full-length protein of the voltage-gated sodium channel of interest are cloned and expressed; expressed in transfected cells
Test: Whole-cell voltage clamp electrophysiology assay
Format: cell-based
Conditions: cells stably expressing the voltage-gated sodium channel of interest
Description: Gene(s) encoding the full-length protein of the voltage-gated sodium channel of interest are cloned and expressed under a suitable promoter in a suitable cell line, as well known in the art. […] Suitable screening assays are as follows.
Electrophysiological studies can be performed using automated patch-clamp electrophysiology platforms, like IonWorks HT, IonWorks Quattro, PatchXpress, QPatch or any other suitable platform. […] Suitable extracellular and intracellular buffer for such experiments are applied according to the instructions given by the manufacturer of the automated patch-clamp platforms. Cells that express the voltage-gated sodium channel protein of interest are exposed to drugs through the pipetting system integrated in the platforms. A suitable voltage stimulus protocol is used to activate the voltage-gated sodium channel proteins of interest through depolarisation from a defined holding potential.
Electrophysiological studies can also be performed using the whole cell configuration of the standard patch clamp technique. In this assay, cells that express the voltage-gated sodium channel protein of interest are exposed to the drugs by conventional microperfusion systems and a suitable voltage stimulus protocol is used to activate the voltage-gated sodium channels.

T1 sequence (Q15858 whole entry): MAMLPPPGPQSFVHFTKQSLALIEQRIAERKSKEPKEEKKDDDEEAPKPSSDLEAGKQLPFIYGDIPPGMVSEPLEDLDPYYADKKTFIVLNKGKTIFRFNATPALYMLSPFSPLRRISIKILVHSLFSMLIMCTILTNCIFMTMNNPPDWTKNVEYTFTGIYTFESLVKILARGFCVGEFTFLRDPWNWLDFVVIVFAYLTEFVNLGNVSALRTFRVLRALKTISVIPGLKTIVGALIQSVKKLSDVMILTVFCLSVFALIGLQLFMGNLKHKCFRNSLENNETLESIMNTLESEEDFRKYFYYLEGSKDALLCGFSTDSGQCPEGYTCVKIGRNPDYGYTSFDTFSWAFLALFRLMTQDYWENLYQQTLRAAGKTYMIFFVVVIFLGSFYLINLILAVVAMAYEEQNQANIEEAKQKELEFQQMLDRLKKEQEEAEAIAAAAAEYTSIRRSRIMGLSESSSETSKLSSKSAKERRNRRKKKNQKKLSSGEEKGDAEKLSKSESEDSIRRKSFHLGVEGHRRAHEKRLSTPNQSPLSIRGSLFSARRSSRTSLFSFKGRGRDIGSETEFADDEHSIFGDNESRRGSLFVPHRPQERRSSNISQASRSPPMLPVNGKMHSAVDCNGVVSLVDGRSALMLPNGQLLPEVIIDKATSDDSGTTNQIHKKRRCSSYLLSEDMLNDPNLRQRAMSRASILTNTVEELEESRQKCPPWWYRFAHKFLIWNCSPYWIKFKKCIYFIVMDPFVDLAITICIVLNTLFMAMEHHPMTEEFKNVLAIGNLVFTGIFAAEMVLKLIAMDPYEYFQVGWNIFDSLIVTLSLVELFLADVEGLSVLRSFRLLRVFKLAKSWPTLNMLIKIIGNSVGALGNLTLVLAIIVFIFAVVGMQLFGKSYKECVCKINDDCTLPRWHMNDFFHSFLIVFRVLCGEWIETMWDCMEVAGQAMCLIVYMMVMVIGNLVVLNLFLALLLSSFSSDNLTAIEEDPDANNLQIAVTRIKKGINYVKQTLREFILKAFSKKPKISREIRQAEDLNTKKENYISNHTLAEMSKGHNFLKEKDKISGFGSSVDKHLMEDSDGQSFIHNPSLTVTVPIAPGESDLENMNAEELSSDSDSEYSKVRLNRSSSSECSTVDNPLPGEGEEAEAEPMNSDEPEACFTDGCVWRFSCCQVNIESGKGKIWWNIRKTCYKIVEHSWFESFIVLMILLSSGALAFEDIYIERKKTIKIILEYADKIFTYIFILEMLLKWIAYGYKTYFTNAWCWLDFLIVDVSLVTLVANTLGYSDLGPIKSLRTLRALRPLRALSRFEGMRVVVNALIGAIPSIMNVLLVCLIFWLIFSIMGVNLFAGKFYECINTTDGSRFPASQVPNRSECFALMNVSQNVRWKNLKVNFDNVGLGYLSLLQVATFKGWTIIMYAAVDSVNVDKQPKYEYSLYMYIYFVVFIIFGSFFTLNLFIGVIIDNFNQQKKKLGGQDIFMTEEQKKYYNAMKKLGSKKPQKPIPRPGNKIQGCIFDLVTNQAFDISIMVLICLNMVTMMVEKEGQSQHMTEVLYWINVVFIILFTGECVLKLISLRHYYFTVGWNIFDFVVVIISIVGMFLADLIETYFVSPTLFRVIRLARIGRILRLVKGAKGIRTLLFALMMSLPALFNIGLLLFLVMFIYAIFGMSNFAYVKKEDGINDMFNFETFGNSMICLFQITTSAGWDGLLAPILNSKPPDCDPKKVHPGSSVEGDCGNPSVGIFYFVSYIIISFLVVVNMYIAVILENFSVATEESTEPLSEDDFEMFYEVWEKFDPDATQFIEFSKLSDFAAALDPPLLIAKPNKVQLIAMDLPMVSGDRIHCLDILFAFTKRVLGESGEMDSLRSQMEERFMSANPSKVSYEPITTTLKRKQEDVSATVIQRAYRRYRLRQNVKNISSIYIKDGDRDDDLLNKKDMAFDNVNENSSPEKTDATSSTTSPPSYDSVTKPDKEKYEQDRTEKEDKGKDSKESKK

Row | SMILES | IC50
1 | CCCCOc1ccc(C(=O)N[C@@H]2COc3cccc(-c4ccncc4)c3C2)cc1 [Example 2, 4-Butoxy-N-[(3S)-5-pyridin-4-yl-3,4-dihydro-2H-chromen-3-yl]benzamide] | 126 nM
2 | O=C(N[C@@H]1CCc2cccc(-c3ccncc3)c2C1)c1ccc(OS(=O)(=O)C(F)(F)F)cc1 [Example 3, 4-{[(2R)-8-Pyridin-4-yl-1,2,3,4-tetrahydronaphthalen-2-yl]carbamoyl}phenyl trifluoromethanesulfonate] | 251 nM
3 | O=C(N[C@@H]1COc2cccc(-c3ccccn3)c2C1)c1ccc(OC(F)(F)F)cc1 [Example 5, N-[(3S)-5-Pyridin-2-yl-3,4-dihydro-2H-chromen-3-yl]-4-(trifluoromethoxy)-benzamide] | 1580 nM
4 | Cn1cc(-c2cccc3c2C[C@H](NC(=O)c2ccc(OC(F)(F)F)cc2)CC3)cn1 [Example 6, N-[(2R)-8-(1-Methyl-1H-pyrazol-4-yl)-1,2,3,4-tetrahydronaphthalen-2-yl]-4-(trifluoromethoxy)-benzamide] | 1000 nM
5 | Cc1nn(-c2ccccc2)nc1C(=O)N[C@@H]1CCc2cccc(-c3cnn(C)c3)c2C1 [Example 8, 5-Methyl-N-[(2R)-8-(1-methyl-1H-pyrazol-4-yl)-1,2,3,4-tetrahydronaphthalen-2-yl]-2-phenyl-2H-1,2,3-triazole-4-carboxamide] | 1580 nM
6 | Cc1n[nH]c(C)c1-c1cccc2c1C[C@H](NC(=O)c1ccc(OC(F)(F)F)cc1)CC2 [Example 9, N-[(2R)-8-(3,5-Dimethyl-1H-pyrazol-4-yl)-1,2,3,4-tetrahydronaphthalen-2-yl]-4-(trifluoromethoxy)-benzamide] | 6310 nM
7 | Cc1noc(C)c1-c1cccc2c1C[C@H](NC(=O)c1ccc(OC(F)(F)F)cc1)CC2 [Example 10, N-[(2R)-8-(3,5-Dimethylisoxazol-4-yl)-1,2,3,4-tetrahydronaphthalen-2-yl]-4-(trifluoromethoxy)-benzamide] | 3980 nM
8 | COc1ccc(C(=O)N[C@@H]2CCc3cccc(-c4ccncc4)c3C2)c(OC)c1 [Example 16, 2,4-dimethoxy-N-[(2R)-8-pyridin-4-yl-1,2,3,4-tetrahydronaphthalen-2-yl]-benzamide] | 2000 nM
9 | Cc1nn(-c2ccccc2)nc1C(=O)N[C@@H]1CCc2cccc(-c3ccncc3)c2C1 [Example 17, 5-methyl-2-phenyl-N-[(2R)-8-pyridin-4-yl-1,2,3,4-tetrahydronaphthalen-2-yl]-2H-1,2,3-triazole-4-carboxamide] | 3980 nM
10 | COc1ccc(C(=O)N[C@@H]2COc3cccc(-c4ccncc4)c3C2)c(OC)c1 [Example 22, 2,4-dimethoxy-N-[(3S)-5-pyridin-4-yl-3,4-dihydro-2H-chromen-3-yl]benzamide] | 6310 nM
11 | Cc1nn(-c2ccccc2)nc1C(=O)N[C@@H]1COc2cccc(-c3ccncc3)c2C1 [Example 23, 5-methyl-2-phenyl-N-[(3S)-5-pyridin-4-yl-3,4-dihydro-2H-chromen-3-yl]-2H-1,2,3-triazole-4-carboxamide] | 1260 nM
12 | CC(C)COc1ccc(C(=O)N[C@@H]2COc3cccc(-c4ccncc4)c3C2)cn1 [Example 24, 6-isobutoxy-N-[(3S)-5-pyridin-4-yl-3,4-dihydro-2H-chromen-3-yl]nicotin-amide] | 126 nM
13 | CCOc1ccc(C(=O)N[C@@H]2COc3cccc(-c4ccncc4)c3C2)cn1 [Example 25, 6-ethoxy-N-[(3S)-5-pyridin-4-yl-3,4-dihydro-2H-chromen-3-yl]nicotin-amide] | 2000 nM
14 | Cc1noc(C)c1-c1cccc2c1C[C@H](NC(=O)c1ccc(OC(C)C)nc1)CC2 [Example 31, N-[(2R)-8-(3,5-dimethylisoxazol-4-yl)-1,2,3,4-tetrahydronaphthalen-2-yl]-6-isopropoxy-nicotinamide] | 2510 nM
15 | O=C(N[C@@H]1COc2cccc(-c3ccncc3)c2C1)c1ccc(Cl)nc1 [Example 35, 6-chloro-N-[(3S)-5-pyridin-4-yl-3,4-dihydro-2H-chromen-3-yl]nicotinamide] | 631 nM
16 | CC(C)Oc1ncc(C(=O)N[C@@H]2COc3cccc(-c4ccncc4)c3C2)cn1 [Example 36, 2-isopropoxy-N-[(3S)-5-pyridin-4-yl-3,4-dihydro-2H-chromen-3-yl]pyrimidine-5-carboxamide] | 1260 nM
17 | COc1cnc(C(=O)N[C@@H]2COc3cccc(-c4ccncc4)c3C2)cn1 [Example 37, 5-methoxy-N-[(3S)-5-pyridin-4-yl-3,4-dihydro-2H-chromen-3-yl]pyrazine-2-carboxamide] | 1000 nM

Second part, the compound after the results:

Row | IC50 | SMILES
18 | 398 nM | O=C(N[C@@H]1COc2cccc(-c3ccncc3)c2C1)c1ccc(OC(F)(F)F)cc1 [Example 1, N-[(3S)-5-Pyridin-4-yl-3,4-dihydro-2H-chromen-3-yl]-4-(trifluoromethoxy)-benzamide]
19 | 200 nM | Cn1cc(-c2cccc3c2C[C@H](NC(=O)c2ccc(OS(=O)(=O)C(F)(F)F)cc2)CC3)cn1 [Example 7, 4-{[(2R)-8-(1-Methyl-1H-pyrazol-4-yl)-1,2,3,4-tetrahydronaphthalen-2-yl]carbamoyl}phenyl trifluoromethanesulfonate]
20 | 631 nM | Cc1noc(C)c1-c1cccc2c1C[C@H](NC(=O)c1ccc(OS(=O)(=O)C(F)(F)F)cc1)CC2 [Example 11, 4-{[(2R)-8-(3,5-Dimethylisoxazol-4-yl)-1,2,3,4-tetrahydronaphthalen-2-yl]carbamoyl}phenyl trifluoromethanesulfonate]
21 | 63.1 nM | O=C(N[C@@H]1CCc2cccc(-c3ccncc3)c2C1)c1ccc(OCC(F)(F)F)nc1 [Example 12, N-[(2R)-8-pyridin-4-yl-1,2,3,4-tetrahydronaphthalen-2-yl]-6-(2,2,2-trifluoroethoxy)nicotinamide]
22 | 39.8 nM | O=C(N[C@@H]1CCc2cccc(-c3ccncc3)c2C1)c1ccc(OCCC(F)(F)F)nc1 [Example 13, N-[(2R)-8-pyridin-4-yl-1,2,3,4-tetrahydronaphthalen-2-yl]-6-(3,3,3-trifluoropropoxy)nicotinamide]
23 | 251 nM | CC(C)Oc1ccc(C(=O)N[C@@H]2CCc3cccc(-c4ccncc4)c3C2)cn1 [Example 14, 6-isopropoxy-N-[(2R)-8-pyridin-4-yl-1,2,3,4-tetrahydronaphthalen-2-yl]nicotin-amide]
24 | 25.1 nM | O=C(N[C@@H]1CCc2cccc(-c3ccncc3)c2C1)c1ccc(OC2CCCC2)nc1 [Example 15, 6-(cyclopentyloxy)-N-[(2R)-8-pyridin-4-yl-1,2,3,4-tetrahydronaphthalen-2-yl]nicotin-amide]
25 | 100 nM | O=C(N[C@@H]1COc2cccc(-c3ccncc3)c2C1)c1ccc(OCC(F)(F)F)nc1 [Example 18, N-[(3S)-5-pyridin-4-yl-3,4-dihydro-2H-chromen-3-yl]-6-(2,2,2-trifluoroethoxy)nicotinamide]
26 | 79.4 nM | O=C(N[C@@H]1COc2cccc(-c3ccncc3)c2C1)c1ccc(OCCC(F)(F)F)nc1 [Example 19, N-[(3S)-5-pyridin-4-yl-3,4-dihydro-2H-chromen-3-yl]-6-(3,3,3-trifluoropropoxy)nicotin-amide]
27 | 158 nM | CC(C)Oc1ccc(C(=O)N[C@@H]2COc3cccc(-c4ccncc4)c3C2)cn1 [Example 20, 6-isopropoxy-N-[(3S)-5-pyridin-4-yl-3,4-dihydro-2H-chromen-3-yl]nicotin-amide]
28 | 63.1 nM | O=C(N[C@@H]1COc2cccc(-c3ccncc3)c2C1)c1ccc(OC2CCCC2)nc1 [Example 21, 6-(cyclopentyloxy)-N-[(3S)-5-pyridin-4-yl-3,4-dihydro-2H-chromen-3-yl]nicotin-amide]
29 | 631 nM | O=C(N[C@@H]1COc2cccc(-c3ccncc3)c2C1)c1ccc(OCC(F)F)nc1 [Example 26, 6-(2,2-difluoroethoxy)-N-[(3S)-5-pyridin-4-yl-3,4-dihydro-2H-chromen-3-yl]nicotin-amide]
30 | 631 nM | O=C(N[C@@H]1COc2cccc(-c3ccncc3)c2C1)c1ccc(OC(CF)CF)nc1 [Example 27, 6-[2-fluoro-1-(fluoromethyl)ethoxy]-N-[(3S)-5-pyridin-4-yl-3,4-dihydro-2H-chromen-3-yl]nicotin-amide]
31 | 100 nM | O=C(N[C@@H]1COc2cccc(-c3ccncc3)c2C1)c1cnc(OC2CCCC2)nc1 [Example 28, 2-(cyclopentyloxy)-N-[(3S)-5-pyridin-4-yl-3,4-dihydro-2H-chromen-3-yl]Pyrimidine-5-carboxamide]
32 | 158 nM | O=C(N[C@@H]1COc2cccc(-c3ccncc3)c2C1)c1ccc(OC2CCC2)nc1 [Example 29, 6-(cyclobutyloxy)-N-[(3S)-5-pyridin-4-yl-3,4-dihydro-2H-chromen-3-yl]nicotin-amide]
33 | 200 nM | O=C(N[C@@H]1COc2cccc(-c3ccncc3)c2C1)c1ccc(OCC2CC2)nc1 [Example 30, 6-(cyclopropylmethoxy)-N-[(3S)-5-pyridin-4-yl-3,4-dihydro-2H-chromen-3-yl]nicotin-amide]
34 | 316 nM | Cc1noc(C)c1-c1cccc2c1C[C@H](NC(=O)c1cnc(OC3CCCC3)nc1)CC2 [Example 33, 2-(cyclopentyloxy)-N-[(2R)-8-(3,5-dimethylisoxazol-4-yl)-1,2,3,4-tetrahydronaphthalen-2-yl]pyrimidine-5-carboxamide]
35 | 631 nM | CCCCS(=O)(=O)c1ccc(C(=O)N[C@@H]2COc3cccc(-c4ccncc4)c3C2)cn1 [Example 34, 6-(butylsulfonyl)-N-[(3S)-5-pyridin-4-yl-3,4-dihydro-2H-chromen-3-yl]nicotinamide]

Reference: US8143408B2, “N-(8-heteroaryltetrahydronaphtalene-2yl) or N-(5-heteroarylchromane-3-yl) carboxamide derivatives for the treatment of pain” (AstraZeneca AB, priority 2007, dated 2012)
